Calls of active or inactive are those of the source. Rule as the data show it: actives have a measured IC50 and inactives only a lower limit.
target: Envelope glycoprotein gp160 (Human immunodeficiency virus 1, UniProt Q6QLK5); assay: cell-free HIV fusion peptide-binding blockers – biochemical, uHTS, fluorescence dequenching, […] (AID 1986)
Sequence (Q6QLK5 whole entry, the tested form may be a part): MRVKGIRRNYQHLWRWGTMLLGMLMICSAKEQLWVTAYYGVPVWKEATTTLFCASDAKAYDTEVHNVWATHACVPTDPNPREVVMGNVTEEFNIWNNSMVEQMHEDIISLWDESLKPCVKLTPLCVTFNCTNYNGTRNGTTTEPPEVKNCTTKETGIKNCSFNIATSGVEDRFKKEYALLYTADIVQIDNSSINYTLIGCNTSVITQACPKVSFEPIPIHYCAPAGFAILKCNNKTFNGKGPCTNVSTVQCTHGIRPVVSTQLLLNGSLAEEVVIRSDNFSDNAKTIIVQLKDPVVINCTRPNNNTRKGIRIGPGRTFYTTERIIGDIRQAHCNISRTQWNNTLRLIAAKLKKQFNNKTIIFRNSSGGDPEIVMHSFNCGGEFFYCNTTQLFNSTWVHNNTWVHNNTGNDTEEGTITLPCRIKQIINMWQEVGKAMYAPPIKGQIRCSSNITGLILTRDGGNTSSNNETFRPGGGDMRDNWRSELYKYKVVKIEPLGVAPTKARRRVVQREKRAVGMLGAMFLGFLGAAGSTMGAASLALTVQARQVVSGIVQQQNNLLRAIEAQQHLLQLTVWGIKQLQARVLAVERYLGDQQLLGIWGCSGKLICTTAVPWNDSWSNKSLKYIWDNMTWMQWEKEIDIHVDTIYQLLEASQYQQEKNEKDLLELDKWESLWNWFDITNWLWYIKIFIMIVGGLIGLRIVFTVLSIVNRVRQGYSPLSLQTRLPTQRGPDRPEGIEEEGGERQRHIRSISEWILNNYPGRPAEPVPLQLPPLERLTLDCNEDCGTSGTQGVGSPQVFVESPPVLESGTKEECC

SMILES	IC50
O=C(O)CN1C(=O)/C(=C\c2cc(Br)ccc2OCc2ccc([N+](=O)[O-])cc2)SC1=S	10.1 µM (active)
Cc1c(CC(=O)O)c(=O)oc2c(C)c3occ(-c4ccc(Br)cc4)c3cc12	27.6 µM (active)
Cc1cc(/C=C2\C(=N)N3N=C(S(C)(=O)=O)SC3=NC2=O)c(C)n1Cc1ccccc1	26.2 µM (active)
CC(C)(C)c1cc(-c2csc(Nc3ccccc3)[n+]2Cc2ccc(C(=O)O)cc2)cc(C(C)(C)C)c1O	12.9 µM (active)
